Read-outs that look alike come from different tables or passages of the source. Bounds are passed on as bounds.

Test [1] concerns KB human tumor subline (expressing RFC, FRα, and PCFT). The test can be described thus: Growth inhibition assay, KB human tumor subline. The class given is cell-based.
The subject of test [2] is CHO subline engineered to express human RFC (PC43-10). The test can be described thus: Growth inhibition assay, CHO subline PC43-10 expressing human RFC. The class given is cell-based.
Test [3] deals with CHO subline engineered to express human PCFT (R2/PCFT4). Description: Growth inhibition assay, CHO subline R2/PCFT4 expressing PCFT. The class given is cell-based. The settings on record: R2/PCFT4 cells.
Test [4] has as its system CHO subline engineered to express human FRα (RT16). The test can be described thus: Growth inhibition assay, CHO subline RT16 expressing FRα. Type of test: cell-based. The settings on record: read-out: IC50 RT16, FR.
Test [5] deals with T1, GARFTase (Homo sapiens, UniProt P22102).
T1 sequence (P22102 1-1010): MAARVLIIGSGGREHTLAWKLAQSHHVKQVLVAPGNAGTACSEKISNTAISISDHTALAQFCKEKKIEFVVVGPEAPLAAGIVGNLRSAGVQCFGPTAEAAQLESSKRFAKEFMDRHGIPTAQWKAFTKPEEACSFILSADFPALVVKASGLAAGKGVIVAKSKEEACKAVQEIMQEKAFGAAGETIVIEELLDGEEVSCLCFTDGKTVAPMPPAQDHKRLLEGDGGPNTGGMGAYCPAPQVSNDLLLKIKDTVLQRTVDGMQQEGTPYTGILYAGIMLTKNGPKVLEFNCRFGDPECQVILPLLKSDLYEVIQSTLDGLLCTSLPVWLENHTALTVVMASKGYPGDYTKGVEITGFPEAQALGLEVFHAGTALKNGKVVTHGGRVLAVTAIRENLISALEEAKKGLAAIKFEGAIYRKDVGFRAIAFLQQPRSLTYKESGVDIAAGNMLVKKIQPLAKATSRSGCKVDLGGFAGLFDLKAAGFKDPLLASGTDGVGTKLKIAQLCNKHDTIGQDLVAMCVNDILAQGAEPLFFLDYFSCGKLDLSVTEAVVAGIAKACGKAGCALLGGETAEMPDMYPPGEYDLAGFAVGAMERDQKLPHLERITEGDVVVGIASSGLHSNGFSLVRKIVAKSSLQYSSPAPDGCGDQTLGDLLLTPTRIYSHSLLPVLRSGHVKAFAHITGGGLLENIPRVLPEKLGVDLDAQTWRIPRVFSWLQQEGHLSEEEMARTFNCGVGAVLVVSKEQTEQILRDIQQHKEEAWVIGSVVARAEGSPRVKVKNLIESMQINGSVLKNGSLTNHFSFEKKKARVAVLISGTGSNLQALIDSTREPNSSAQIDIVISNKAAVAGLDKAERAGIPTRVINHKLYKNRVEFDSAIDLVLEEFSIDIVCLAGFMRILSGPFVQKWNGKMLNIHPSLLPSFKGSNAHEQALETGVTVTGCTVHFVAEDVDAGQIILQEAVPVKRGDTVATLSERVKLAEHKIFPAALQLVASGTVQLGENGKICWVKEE
The conditions noted are these: reported in reference 1; cited from earlier work.

In test [6] the target is AICARFTase (Homo sapiens, UniProt P31939). The conditions noted are these: reported in reference 1; cited from earlier work.
AICARFTase, sequence (P31939 whole entry): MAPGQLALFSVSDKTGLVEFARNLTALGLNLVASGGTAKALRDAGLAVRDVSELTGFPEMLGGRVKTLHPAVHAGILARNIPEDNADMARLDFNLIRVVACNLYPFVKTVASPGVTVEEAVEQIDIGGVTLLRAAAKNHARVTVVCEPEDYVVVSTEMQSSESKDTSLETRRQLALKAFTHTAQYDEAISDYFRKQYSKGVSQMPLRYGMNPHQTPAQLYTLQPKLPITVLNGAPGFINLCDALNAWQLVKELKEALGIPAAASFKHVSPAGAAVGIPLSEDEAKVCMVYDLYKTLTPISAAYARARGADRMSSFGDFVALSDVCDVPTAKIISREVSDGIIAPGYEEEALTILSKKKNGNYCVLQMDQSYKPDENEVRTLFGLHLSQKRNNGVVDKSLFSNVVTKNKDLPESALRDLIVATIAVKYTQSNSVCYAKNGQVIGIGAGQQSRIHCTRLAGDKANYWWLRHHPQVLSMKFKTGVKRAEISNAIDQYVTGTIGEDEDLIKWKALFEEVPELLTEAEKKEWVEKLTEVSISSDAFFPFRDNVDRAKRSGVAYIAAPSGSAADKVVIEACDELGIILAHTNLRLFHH
Test [7] has as its system transporter-null (R2) CHO cells. The test can be described thus: Growth inhibition assay, transporter-null R2 CHO cells. Type of test: cell-based. The settings on record: Cricetulus griseus, Table 1, mean of 3 to 10 experiments.
Where [8] appears, read: Table 1, growth inhibition by 50% relative to cells without drug, mean of 3 to 10 experiments.

Usually IC50 stands for the point on the concentration scale where inhibition reaches its midpoint. `Nc1nc2[nH]cc(CCCOc3ccc(C(=O)N[C@@H](CCC(=O)O)C(=O)O)cc3)c2c(=O)[nH]1` [Compound 9]: the concentration for half-maximal inhibition (IC50) in test [1] (Table 2) is 51 nM; in test [2] (Table 2), 53.2 nM; in test [3] (Table 2), 390 nM; in test [4] (Table 2), 42.2 nM.
As for `Nc1nc2[nH]cc(CCCSc3ccc(C(=O)N[C@@H](CCC(=O)O)C(=O)O)cc3)c2c(=O)[nH]1` [Compound 10], the 50% inhibitory concentration (IC50) is over 1000 nM in test [1] (Table 2), over 1000 nM in test [2] (Table 2), 549 nM in test [3] (Table 2) and 281 nM in test [4] (Table 2).
Turning to `Nc1nc2[nH]cc(CCCCc3ccc(C(=O)N[C@@H](CCC(=O)O)C(=O)O)cc3)c2c(=O)[nH]1` [Compound 3], the “inhibition of GARFTase” value in test [5] is on record as “inhibited”. Besides, the IC50 in test [1] (setting [8]) is 12.7 nM; in test [1] (Table 2) it was 12.7 nM; in test [2] (setting [8]), 56.6 nM; in test [2] (Table 2), 56.6 nM; in test [3] (Table 1, mean of 3 to 10 experiments) it was 840 nM; in test [3] (Table 2) it was 840 nM. In addition, the half-inhibitory concentration (IC50) in test [4] (setting [8]) and in test [4] (Table 2) was 8.6 nM throughout. Also, the “inhibition of AICARFTase” value in test [6] is “inhibited”.
On to `Nc1nc2[nH]cc(CCc3ccc(C(=O)N[C@@H](CCC(=O)O)C(=O)O)cc3)c2c(=O)[nH]1` [PMX, Pemetrexed], for which the concentration for half-maximal inhibition (IC50) in test [7] was over 1000 nM; in test [1] (Table 2), 9.94 nM; in test [2] (Table 2), 30.6 nM.
As to `Nc1nc2[nH]cc(CCCCc3cccc(C(=O)N[C@@H](CCC(=O)O)C(=O)O)c3)c2c(=O)[nH]1` [Compound 11], the IC50 in test [1] (Table 2) is over 1000 nM; in test [2] (Table 2), 608 nM; in test [3] (Table 2) it was over 1000 nM; in test [4] (Table 2), over 1000 nM.

(Values after patent US9650384B2, “Substituted pyrimidine compounds and methods of use and manufacture” (Duquesne University of the Holy Spirit, priority 2014, dated 2017).)
